US12202805B2, “Process for preparing (5S)-{[2-(4-carboxyphenyl)ethyl] |2-(2-{|3-chloro-4'-(trifluoromethyl)biphenyl-4-yl]methoxy}phenyl)ethyl]aminol-5,6,7,8-tetrahydroquinoline-2-carboxylic acid and its crystalline forms for use as pharmaceutically active compound” (Bayer Aktiengesellschaft, priority 2021, dated 2025)
“And” between values parts separate entries of the source, which are not always exact repeats. Equal entries are not always repeated.

Tested on: thromboxane A2 challenged PAH-minipig
Assay: Haemodynamics in the anesthetized thromboxane challenged minipig, intratracheal dry powder (PAP, BP)
Format: in vivo, Göttingen Minipigs
Description: Healthy Göttingen Minipigs® Ellegaard (Ellegaard, Denmark) of both sexes and having a weight of 2-6 kg were used. The animals were sedated by i.m. administration of about 25 mg/kg ketamine and about 10 mg/kg azaperone. Anaesthesia was initiated by i.v. administration of about 2 mg/kg ketamine and about 0.3 mg/kg midazolam. Maintenance of anaesthesia was by i.v. administration of about 7.5-30 mg/kg/h ketamine and about 1-4 mg/kg/h midazolam (rate of infusion 1-4 ml/kg/h) and about 150 μg/kg/h pancuronium bromide (for example Pancuronium-Actavis). After intubation, the animals were ventilated by the ventilator at a constant respiratory volume (10-12 ml/kg, 35 breaths/min; Avea®, Viasys Healthcare, USA, or Engström Carestation, GE Healthcare, Freiburg, Germany) such that an end-tidal CO2 concentration of about 5% was achieved. Ventilation was performed with room air, enriched with about 40% oxygen (normoxia). For the measurement of the haemodynamic parameters such as pulmonary arterial pressure (PAP), blood pressure (BP) and heart rate (HR), catheters were inserted into the carotid artery to measure the blood pressure, and a Swan-Ganz® catheter was introduced in a flow-directed manner via the jugular vein into the pulmonary artery. The haemodynamic signals were recorded and evaluated by means of pressure transducers (Combitransducer, B. Braun, Melsungen, Germany)/amplifiers and Ponemah® as data acquisition software.
As reference pure Lactose vehicle was applied in the beginning of each experiment.

**Q.** For `O.O=C(O)c1ccc(CCN(CCc2ccccc2OCc2ccc(-c3ccc(C(F)(F)F)cc3)cc2Cl)[C@H]2CCCc3nc(C(=O)O)ccc32)cc1.O=C(O)c1ccc(CCN(CCc2ccccc2OCc2ccc(-c3ccc(C(F)(F)F)cc3)cc2Cl)[C@H]2CCCc3nc(C(=O)O)ccc32)cc1` [example 6a, (5S)—{[2-(4-Carboxyphenyl)ethyl][2-(2-{[3-chloro-4′-(trifluoromethyl)biphenyl-4-yl]methoxy}phenyl)-ethyl]amino}-5,6,7,8-tetrahydroquinoline-2-carboxylic acid semihydrate], which systemic blood pressure (375 μg/kg i.t., within the last hour of the observation interval) is on record?
**A.** The systemic blood pressure was “slightly affected”.

**Q.** And the “efficacy with regard to PAP reduction as well as systemic BP reduction” value (micronized hydrates, 1.5 mg/4 kg (=375 μg/kg) i.t.)?
**A.** The value was “comparable efficacy”.

**Q.** What about the “BP (mean)” value (time 0 min, 375 μg/kg i.t.) of the same compound?
**A.** Its value is 101 mmHg and 85 mmHg.

**Q.** What about the “PAP(mean)” value (time 0 min, 375 μg/kg i.t.) of the same compound?
**A.** The value was 39.6 mmHg and 40.8 mmHg and 38.5 mmHg.

**Q.** What about the “BP (mean)” value (time 10 min, 375 μg/kg i.t.) of the same compound?
**A.** The value was 103 mmHg and 83 mmHg and 79 mmHg.

**Q.** And the “PAP(mean)” value (time 10 min, 375 μg/kg i.t.)?
**A.** The value was 40.2 mmHg and 41.1 mmHg.

**Q.** And the “BP (mean)” value (time 20 min, 375 μg/kg i.t.)?
**A.** Its value is 101 mmHg and 83 mmHg and 84 mmHg.

**Q.** And the “PAP(mean)” value (time 20 min, 375 μg/kg i.t.)?
**A.** Its value is 40.4 mmHg and 41.3 mmHg.

**Q.** And the “BP (mean)” value (time 30 min, 375 μg/kg i.t.)?
**A.** The value was 100 mmHg and 81 mmHg and 88 mmHg.

**Q.** What about the “PAP(mean)” value (time 30 min, 375 μg/kg i.t.) of the same compound?
**A.** The value was 40.2 mmHg and 41.3 mmHg.

**Q.** And the “BP (mean)” value (time 40 min, 375 μg/kg i.t.)?
**A.** Its value is 98 mmHg and 81 mmHg and 90 mmHg.

**Q.** What about the “PAP(mean)” value (time 40 min, 375 μg/kg i.t.) of the same compound?
**A.** The value was 40.4 mmHg and 41.8 mmHg and 41.0 mmHg.

**Q.** And the “BP (mean)” value (time 50 min, 375 μg/kg i.t.)?
**A.** Its value is 99 mmHg and 78 mmHg and 89 mmHg.

**Q.** And the “PAP(mean)” value (time 50 min, 375 μg/kg i.t.)?
**A.** The value was 40.7 mmHg and 41.7 mmHg and 40.9 mmHg.

**Q.** What about the “BP (mean)” value (time 60 min, 375 μg/kg i.t.) of the same compound?
**A.** The value was 100 mmHg and 79 mmHg and 86 mmHg.

**Q.** What about the “BP, % changes vs. prevalues” (time 60 min, 375 μg/kg i.t.) of the same compound?
**A.** The value was 100.6% and 99.7% and 97.2%.

**Q.** And the “PAP(mean)” value (time 60 min, 375 μg/kg i.t.)?
**A.** Its value is 41.2 mmHg and 42.0 mmHg and 40.9 mmHg.

**Q.** What about the “PAP, % changes vs. prevalues” (time 60 min, 375 μg/kg i.t.) of the same compound?
**A.** The value was 100.7% and 99.4% and 99.2%.

**Q.** And the “BP (mean)” value (time 70 min, 375 μg/kg i.t.)?
**A.** The value was 102 mmHg and 78 mmHg and 87 mmHg.

**Q.** What about the “BP, % changes vs. prevalues” (time 70 min, 375 μg/kg i.t.) of the same compound?
**A.** Its value is 102.6% and 98.4%.

**Q.** And the “PAP(mean)” value (time 70 min, 375 μg/kg i.t.)?
**A.** The value was 38.8 mmHg and 40.6 mmHg and 40.1 mmHg.

**Q.** What about the “PAP, % changes vs. prevalues” (time 70 min, 375 μg/kg i.t.) of the same compound?
**A.** Its value is 94.7% and 96.1% and 97.0%.

**Q.** What about the “BP (mean)” value (time 80 min, 375 μg/kg i.t.) of the same compound?
**A.** The value was 102 mmHg and 79 mmHg and 90 mmHg.

**Q.** What about the “BP, % changes vs. prevalues” (time 80 min, 375 μg/kg i.t.) of the same compound?
**A.** Its value is 102.6% and 99.7% and 101.8%.

**Q.** What about the “PAP(mean)” value (time 80 min, 375 μg/kg i.t.) of the same compound?
**A.** Its value is 34.1 mmHg and 39.9 mmHg and 37.7 mmHg.

**Q.** And the “PAP, % changes vs. prevalues” (time 80 min, 375 μg/kg i.t.)?
**A.** Its value is 83.4% and 94.5% and 91.2%.

**Q.** What about the “BP (mean)” value (time 90 min, 375 μg/kg i.t.) of the same compound?
**A.** The value was 101 mmHg and 81 mmHg and 92 mmHg.

**Q.** And the “BP, % changes vs. prevalues” (time 90 min, 375 μg/kg i.t.)?
**A.** The value was 101.6% and 102.2% and 104.0%.

**Q.** What about the “PAP(mean)” value (time 90 min, 375 μg/kg i.t.) of the same compound?
**A.** The value was 30.1 mmHg and 37.7 mmHg and 36.6 mmHg.

**Q.** And the “PAP, % changes vs. prevalues” (time 90 min, 375 μg/kg i.t.)?
**A.** Its value is 73.4% and 89.2% and 88.7%.

**Q.** What about the “BP (mean)” value (time 100 min, 375 μg/kg i.t.) of the same compound?
**A.** The value was 100 mmHg and 80 mmHg and 95 mmHg.

**Q.** And the “BP, % changes vs. prevalues” (time 100 min, 375 μg/kg i.t.)?
**A.** Its value is 100.6% and 101.0% and 107.4%.

**Q.** And the “PAP(mean)” value (time 100 min, 375 μg/kg i.t.)?
**A.** The value was 28.3 mmHg and 35.9 mmHg and 35.0 mmHg.

**Q.** And the “PAP, % changes vs. prevalues” (time 100 min, 375 μg/kg i.t.)?
**A.** The value was 69.0% and 85.0% and 84.7%.

**Q.** What about the “BP (mean)” value (time 110 min, 375 μg/kg i.t.) of the same compound?
**A.** Its value is 99 mmHg and 79 mmHg.

**Q.** What about the “BP, % changes vs. prevalues” (time 110 min, 375 μg/kg i.t.) of the same compound?
**A.** Its value is 99.6% and 99.7% and 111.9%.

**Q.** And the “PAP(mean)” value (time 110 min, 375 μg/kg i.t.)?
**A.** The value was 27.2 mmHg and 34.8 mmHg and 34.0 mmHg.

**Q.** And the “PAP, % changes vs. prevalues” (time 110 min, 375 μg/kg i.t.)?
**A.** Its value is 66.5% and 82.4% and 82.1%.

**Q.** What about the “BP (mean)” value (time 120 min, 375 μg/kg i.t.) of the same compound?
**A.** The value was 99 mmHg and 79 mmHg and 96 mmHg.

**Q.** And the “BP, % changes vs. prevalues” (time 120 min, 375 μg/kg i.t.)?
**A.** Its value is 99.6% and 99.7% and 108.6%.

**Q.** What about the “PAP(mean)” value (time 120 min, 375 μg/kg i.t.) of the same compound?
**A.** Its value is 26.4 mmHg and 34.1 mmHg and 32.9 mmHg.

**Q.** What about the “PAP, % changes vs. prevalues” (time 120 min, 375 μg/kg i.t.) of the same compound?
**A.** The value was 64.4% and 80.8% and 79.7%.

**Q.** What about the “BP (mean)” value (time 130 min, 375 μg/kg i.t.) of the same compound?
**A.** The value was 98 mmHg and 81 mmHg and 97 mmHg.

**Q.** And the “BP, % changes vs. prevalues” (time 130 min, 375 μg/kg i.t.)?
**A.** The value was 98.6% and 102.2% and 109.7%.

**Q.** And the “PAP(mean)” value (time 130 min, 375 μg/kg i.t.)?
**A.** Its value is 25.7 mmHg and 33.7 mmHg and 31.7 mmHg.

**Q.** What about the “PAP, % changes vs. prevalues” (time 130 min, 375 μg/kg i.t.) of the same compound?
**A.** The value was 62.8% and 79.9% and 76.7%.

**Q.** And the “BP (mean)” value (time 140 min, 375 μg/kg i.t.)?
**A.** Its value is 99 mmHg and 82 mmHg and 98 mmHg.

**Q.** And the “BP, % changes vs. prevalues” (time 140 min, 375 μg/kg i.t.)?
**A.** The value was 99.6% and 103.5% and 110.8%.

**Q.** And the “PAP(mean)” value (time 140 min, 375 μg/kg i.t.)?
**A.** Its value is 25.3 mmHg and 33.2 mmHg and 31.3 mmHg.

**Q.** And the “PAP, % changes vs. prevalues” (time 140 min, 375 μg/kg i.t.)?
**A.** Its value is 61.8% and 78.7% and 75.7%.

**Q.** What about the “BP (mean)” value (time 150 min, 375 μg/kg i.t.) of the same compound?
**A.** Its value is 97 mmHg and 82 mmHg.

**Q.** And the “BP, % changes vs. prevalues” (time 150 min, 375 μg/kg i.t.)?
**A.** Its value is 97.6% and 103.5% and 109.7%.

**Q.** And the “PAP(mean)” value (time 150 min, 375 μg/kg i.t.)?
**A.** The value was 25.0 mmHg and 32.9 mmHg and 30.7 mmHg.

**Q.** And the “PAP, % changes vs. prevalues” (time 150 min, 375 μg/kg i.t.)?
**A.** The value was 60.9% and 78.0% and 74.3%.

**Q.** What about the “BP (mean)” value (time 160 min, 375 μg/kg i.t.) of the same compound?
**A.** Its value is 96 mmHg and 81 mmHg and 97 mmHg.

**Q.** What about the “BP, % changes vs. prevalues” (time 160 min, 375 μg/kg i.t.) of the same compound?
**A.** Its value is 96.6% and 102.2% and 109.7%.

**Q.** What about the “PAP(mean)” value (time 160 min, 375 μg/kg i.t.) of the same compound?
**A.** Its value is 24.5 mmHg and 32.5 mmHg and 30.2 mmHg.
